Experimental data: patent US20210290648A1, “Potentiation of B-Lactam Antibiotics and B-Lactam/B-Lactamase Inhibitor Combinations Against Multidrug and Extensively Drug-Resistant Pseudomonas Aeruginosa Using Non-Ribosomal Tobramycin-Cyclam Conjugates” (University of Manitoba, priority 2018, published 2021)

What was measured:
PA 259 = experiment: Checkerboard combination study / MIC; assay type: cell-based, Pseudomonas aeruginosa
PA 260 = experiment: Checkerboard combination study / MIC; assay type: cell-based, Pseudomonas aeruginosa
PA 101243 = experiment: Checkerboard combination study / MIC; assay type: cell-based, Pseudomonas aeruginosa; conditions: PA 101243
PA 91433 = experiment: Checkerboard combination study / MIC; assay type: cell-based, Pseudomonas aeruginosa; conditions: for MICCombination (2) / FIC2: PA 91433
[1] = system: MDR PA101885-challenged larvae; experiment: Galleria mellonella infection model, efficacy; assay type: in vivo
Protocol: In vivo synergistic effects were determined using Galleria mellonella infection model, as previously described (20). Briefly, worms were purchased from The Worm Lady® Live Feeder (ON, Canada), stored in their natural habitat at 16° C., and used within 10 days of delivery. The worms (average weight of 250 mg) were used for tolerability and efficacy studies. Tolerability study was performed by injecting 10 μL of antimicrobial agents only at concentrations equivalent to 100 mg/kg or 200 mg/kg. The worms (ten in each group) were incubated at 37° C. and monitored for 96 h. For efficacy studies, the virulence and bacterial load required to kill 100% of the worms within 12-18 h (with no treatment) was first determined, which is approximately 5 CFU. Overnight grown culture of respective MDR P. aeruginosa isolate was standardized to 0.5 McFarland standard and diluted in PBS to a final concentration of 5×10^2CFU/mL. 10 μL of this solution (5 CFU) was injected into each worm and incubated for 3 h at 37° C. […] Worms treated with 10 μL PBS or high concentrations of test antibiotics served as negative and positive control, respectively. The worms were incubated at 37° C. in Petri dishes lined with filter paper and scored for survivability every 6 h for up to 48 h. This experiment was repeated to give a total of thirty worms (n=30) in each case. Survival data curves were plotted using Kaplan-Meier survival analysis.

PA 101885 = experiment: Checkerboard combination study / MIC; assay type: cell-based, Pseudomonas aeruginosa
PA 264 = experiment: Checkerboard combination study / MIC; assay type: cell-based, Pseudomonas aeruginosa
[2] = system: Galleria mellonella larvae; experiment: Galleria mellonella tolerability study; conditions: 100 mg/kg and 200 mg/kg injected alone; after 48 h
Protocol: In vitro and in vivo discordances have been observed in antimicrobial chemotherapy, thus, therapeutic efficacy may not necessarily be reliably extrapolated based on in vitro data alone. […] Colistin (100 mg/kg), an antibiotic well known for its toxicity towards eukaryotes, served as a positive control for this experiment while PBS served as negative control. […] Survivability was scored for a total of 4 days.
In vivo larvae-infection model. In vivo synergistic effects were determined using Galleria mellonella infection model, as previously described (20). Briefly, worms were purchased from The Worm Lady® Live Feeder (ON, Canada), stored in their natural habitat at 16° C., and used within 10 days of delivery. The worms (average weight of 250 mg) were used for tolerability and efficacy studies. Tolerability study was performed by injecting 10 μL of antimicrobial agents only at concentrations equivalent to 100 mg/kg or 200 mg/kg. The worms (ten in each group) were incubated at 37° C. and monitored for 96 h. […] Overnight grown culture of respective MDR P. aeruginosa isolate was standardized to 0.5 McFarland standard and diluted in PBS to a final concentration of […]. 10 μL of this solution (5 CFU) was injected into each worm and incubated for 3 h at 37° C. […] Worms treated with 10 μL PBS or high concentrations of test antibiotics served as negative and positive control, respectively. The worms were incubated at 37° C. in Petri dishes lined with filter paper and scored for survivability every 6 h for up to 48 h. This experiment was repeated to give a total of thirty worms (n=30) in each case. Survival data curves were plotted using Kaplan-Meier survival analysis.

Substance: 5-O-(Octylcyclam)-tobramycin.9TFA [Compound 2]
- MICCombination (2) (PA 259; MIC of 2 combined with AZT): 16 µg/mL
- MICCombination (2) (PA 259; MIC of 2 combined with CAZ): 16 µg/mL
- MICCombination (2) (PA 259; MIC of 2 combined with CEF): 16 µg/mL
- MICCombination (2) (PA 259; MIC of 2 combined with MER): 16 µg/mL
- MICCombination (2) (PA 259; MIC of 2 combined with PIP): 1 µg/mL
- FIC2 (PA 259; with AZT): <0.0625
- FIC2 (PA 259; with CAZ): <0.0625
- FIC2 (PA 259; with CEF): <0.0625
- FIC2 (PA 259; with MER): <0.0625
- FIC2 (PA 259; with PIP): <0.0039
- MICCombination (2) (PA 260; MIC of 2 combined with AZT): 16 µg/mL
- MICCombination (2) (PA 260; MIC of 2 combined with CAZ): 4 µg/mL
- MICCombination (2) (PA 260; MIC of 2 combined with CEF): 8 µg/mL
- MICCombination (2) (PA 260; MIC of 2 combined with DOR): 8 µg/mL
- MICCombination (2) (PA 260; MIC of 2 combined with MER): 8 µg/mL
- MICCombination (2) (PA 260; MIC of 2 combined with PIP): 16 µg/mL
- FIC2 (PA 260; with AZT): <0.0625
- FIC2 (PA 260; with CAZ): <0.0156
- FIC2 (PA 260; with CEF): <0.0313
- FIC2 (PA 260; with DOR): <0.0313
- FIC2 (PA 260; with MER): <0.0313
- FIC2 (PA 260; with PIP): <0.0625
- MICCombination (2) (PA 101243; MIC of 2 combined with AZT): 2 µg/mL
- MICCombination (2) (PA 101243; MIC of 2 combined with CAZ): 1 µg/mL
- MICCombination (2) (PA 101243; MIC of 2 combined with CEF): 0.25 µg/mL
- MICCombination (2) (PA 101243; MIC of 2 combined with DOR): 0.25 µg/mL
- MICCombination (2) (PA 101243; MIC of 2 combined with MER): 0.5 µg/mL
- MICCombination (2) (PA 101243; MIC of 2 combined with PIP): 16 µg/mL
- FIC2 (PA 101243; with AZT): <0.0078
- FIC2 (PA 101243; with CAZ): <0.0039
- FIC2 (PA 101243; with CEF): <0.0010
- FIC2 (PA 101243; with DOR): <0.0010
- FIC2 (PA 101243; with MER): <0.0020
- FIC2 (PA 101243; with PIP): <0.0625
- MICCombination (2) (PA 91433; MIC of 2 combined with AZT): 16 µg/mL
- MICCombination (2) (PA 91433; MIC of 2 combined with CAZ): 0.25 µg/mL
- MICCombination (2) (PA 91433; MIC of 2 combined with CEF): 16 µg/mL
- MICCombination (2) (PA 91433; MIC of 2 combined with DOR): 8 µg/mL
- MICCombination (2) (PA 91433; MIC of 2 combined with MER): 4 µg/mL
- potentiation of meropenem (PA 91433; by compound 2, colistin-resistant clinical isolate PA91433): 64 fold
- FIC2 (PA 91433; with AZT): <0.0625
- FIC2 (PA 91433; with CAZ): <0.0010
- FIC2 (PA 91433; with CEF): <0.0625
- FIC2 (PA 91433; with DOR): <0.0313
- FIC2 (PA 91433; with MER): <0.0156
- mortality of larvae, monotherapy ([1]; aztreonam […], meropenem 37.5 mg/kg, compound 2 100 mg/kg, after 24 h): 100%
- activity by itself against MDR PA101885 ([1]; in vitro and in vivo): innately inactive
- survival of larvae ([1]; meropenem + compound 2, 25+25 mg/kg, after 24 h): 0%
- survival of larvae ([1]; meropenem + compound 2, 37.5+37.5 mg/kg, after 24 h): 85%
- MICCombination (2) (PA 101885; MIC of 2 combined with AZT): 16 µg/mL
- MICCombination (2) (PA 101885; MIC of 2 combined with CAZ): 8 µg/mL
- MICCombination (2) (PA 101885; MIC of 2 combined with CEF): 16 µg/mL
- MICCombination (2) (PA 101885; MIC of 2 combined with DOR): 4 µg/mL
- MICCombination (2) (PA 101885; MIC of 2 combined with MER): 8 µg/mL
- MICCombination (2) (PA 101885; MIC of 2 combined with PIP): 16 µg/mL
- FIC2 (PA 101885; with AZT): <0.0625
- FIC2 (PA 101885; with CAZ): <0.0313
- FIC2 (PA 101885; with CEF): <0.0625
- FIC2 (PA 101885; with DOR): <0.0156
- FIC2 (PA 101885; with MER): <0.0313
- FIC2 (PA 101885; with PIP): <0.0625
- MICCombination (2) (PA 264; MIC of 2 combined with AZT): 8 µg/mL
- MICCombination (2) (PA 264; MIC of 2 combined with CAZ): 8 µg/mL
- MICCombination (2) (PA 264; MIC of 2 combined with CEF): 16 µg/mL
- MICCombination (2) (PA 264; MIC of 2 combined with DOR): 4 µg/mL
- MICCombination (2) (PA 264; MIC of 2 combined with MER): 4 µg/mL
- MICCombination (2) (PA 264; MIC of 2 combined with PIP): 4 µg/mL
- FIC2 (PA 264; with AZT): <0.0313
- FIC2 (PA 264; with CAZ): <0.0313
- FIC2 (PA 264; with CEF): <0.0625
- FIC2 (PA 264; with DOR): <0.0156
- FIC2 (PA 264; with MER): <0.0156
- FIC2 (PA 264; with PIP): <0.0156
- survival of larvae [2]: 100%
